Drawing on patent US20240300917A1, “MICROBIOCIDAL QUINOLINE/QUINOXALINE ISOQUINOLINE DERIVATIVES” (SYNGENTA CROP PROTECTION AG, priority 2021, published 2024), this text covers melting point for seven compounds.

The compound `Cc1ccc2c(c1C#N)[C@H](C)[C@H](C)N=C2c1cnc2c(F)cccc2c1` (racemic) displayed a melting point of 164 to 166 °C. `Cc1ccc2c(c1C#N)[C@H](C)[C@H](C)N=C2c1cnc2c(F)c(F)ccc2c1` (racemic) [E.06, rac-(3S,4S)-1-(7,8-difluoro-3-quinolyl)-3,4,6-trimethyl-3,4-dihydroisoquinoline-5-carbonitrile] showed a melting point of 140 to 142 °C. With `Cc1ccc2c(c1Cl)[C@@H](C)[C@H](C)N=C2c1cnc2c(F)cccc2c1` (racemic) [E.09, rac-(3S,4R)-5-chloro-1-(8-fluoro-3-quinolyl)-3,4,6-trimethyl-3,4-dihydroisoquinoline], the melting point is 82 to 84 °C.

Turning to `C[C@@H]1N=C(c2cnc3c(F)cccc3c2)c2cccc(Br)c2[C@H]1C` (racemic) [E.12, rac-(3S,4R)-5-bromo-1-(8-fluoro-3-quinolyl)-3,4-dimethyl-3,4-dihydroisoquinoline], the melting point was 132 to 134 °C. In the case of `C[C@@H]1N=C(c2cnc3c(F)cccc3c2)c2cccc(Cl)c2[C@H]1C` (racemic) [E.13, rac-(3S,4R)-5-chloro-1-(8-fluoro-3-quinolyl)-3,4-dimethyl-3,4-dihydroisoquinoline], the melting point fell in the range of 112 to 114 °C. The compound `Cc1ccc2c(c1Cl)[C@H](C)[C@H](C)N=C2c1cnc2c(F)cccc2c1` (racemic) [E.14, rac-(3S,4S)-5-chloro-1-(8-fluoro-3-quinolyl)-3,4,6-trimethyl-3,4-dihydroisoquinoline] came in with a melting point of 84 to 86 °C. For the compound `C[C@@H]1N=C(c2cnc3c(F)cccc3c2)c2cccc(Cl)c2[C@@H]1C` (racemic) [E.15, rac-(3S,4S)-5-chloro-1-(8-fluoro-3-quinolyl)-3,4-dimethyl-3,4-dihydroisoquinoline], the melting point was in the range of 100 to 102 °C.

As usually defined, the melting point is the temperature of the solid-liquid transition.
